This note sets out measurements from US10766926B2, “Composition for autophagy inhibiting in cell, and pharmaceutical composition for preventing or treating tumor disease, or inhibiting anti-cancer agents resistance containing the same” (L-BASE CO., LTD, priority 2018, dated 2020).

Assay [1] has as its system PC9 cell line and PC9-ER cell line. Put plainly: MTT assay, resistance of PC9 and PC9-ER cell lines to anticancer agents. The assay is classed as cell-based. To be noted: anticancer agent 1/10-fold serial dilution, 24 hours, FIGS. 3A and 3B. As to the method: The cancer cell line (PC9) used in the present invention was cultured in a minimum essential medium in a conditioned incubator (37° C.) supplemented with 10% fetal bovine serum and antibiotics. The cancer cell line (PC9-ER) was constructed to have resistance by exposing to erlotinib as an anticancer agent for a long period of time.
Additionally, the MTT assay was performed so as to confirm the resistance of the PC9 cell line and the PC9-ER cell line to anticancer agents.
Specifically, an equal number of the PC9 cell line and the PC9-ER cell line were cultured in a 96-well cell culture plate, treated with an anticancer agent subjected to a 1/10-fold serial dilution for 24 hours, and confirmed using MTT. As an experiment to utilize the principle that NADH present in the mitochondria of a living cell reacts with MTT to form formazan, formazan was dissolved in DMSO and its absorbance was measured at 570 nm and thereby the growth activity of the cells was confirmed.
For orientation: Formazan colour is commonly taken as a measure of viable cells.

For assay [2], the system named is PC9-ER cell line. Put plainly: MTT assay, resistance of PC9-ER cell line to anticancer agent after polypeptide treatment. The assay is classed as cell-based. Conditions: conclusion of Example 2. As to the method: Additionally, the PC9-ER cell line was treated with the polypeptide 1, polypeptide 2, and GNTITIKT (polypeptide 3), respectively, and the MTT assay was performed so as to confirm the resistance of the PC9-ER cell line to anticancer agents.
Specifically, the PC9-ER cell line was plated on a 96-well cell culture plate and treated with each of the polypeptides (1 to 3) for 24 hours. Then, the cells were treated for with an anticancer agent subjected to a 1/10-fold serial dilution for 24 hours and confirmed using MTT. As an experiment to utilize the principle that NADH present in the mitochondria of a living cell reacts with MTT to form formazan, formazan was dissolved in DMSO and its absorbance was measured at 570 nm and thereby the growth activity of the cells was confirmed.

Assay [3] concerns H1975 cell line. Put plainly: MTT assay, resistance of H1975 cell line to osimertinib after polypeptide treatment. The assay is classed as cell-based. Conditions: for anticancer activity through the inhibition of autophagy: conclusion of Example 5. As to the method:
Additionally, after the treatment with the polypeptide 1, polypeptide 2, and polypeptide 3, respectively, the MTT assay was performed so as to confirm the resistance to osimertinib (Tagrisso), an anticancer agent.
Specifically, an equal number of cells of the H1975 cell line were plated into a 96-well cell culture plate and treated with the polypeptides (1 to 3) for 24 hours. Then, the cells were treated with osimertinib (Tagrisso), an anticancer agent, which was subjected to a 1/10-fold serial dilution, for 24 hours and were confirmed using MTT. As an experiment to utilize the principle that NADH present in the mitochondria of a living cell reacts with MTT to form formazan, formazan was dissolved in DMSO and its absorbance was measured at 570 nm and thereby the growth activity of the cells was confirmed.

In assay [4] the test system is MCF7^R cell line. The experiment in a line: western blot of autophagy controlling proteins in MCF7^R cell line. To be noted: FIG. 12. It counts as cell-based. As to the method:
MCF7^R cancer cell line having resistance to anticancer agents was constructed to have resistance by exposing to celastrol for a long period of time
To examine the effects of the polypeptide 1 and the polypeptide 2 on the proteins of autophagy controlling mechanism, western blot was performed using each labeled antibody in the MCF7^R cell line.
On the technique in general: Immunoblotting shows a protein as a band on a membrane.

Assay [5] relates to PC9-ER cell line. The experiment in a line: inhibitory effect against tumor formation, PC9-ER tumor in nude mice. The assay is classed as in vivo, athymic nude mice (BALB/C nude). To be noted: PC9-ER tumor in nude mice, 0, 50, 100, 200 μg/mouse, 5 injections through caudal vein, measured on day 41; FIGS. 8A-8C. The protocol: (§1) Specifically, athymic nude mice (BALB/C nude, 5 to 6-week old females) were subcutaneously injected on the side with the PC9-ER cell line (2×10^6 cells/mouse) to induce tumor. When the tumor volume reached about 150 mm^3, the polypeptide 2 was injected a total of 5 times through the caudal vein and the changes in the tumor size were examined. The tumor volume was directly measured using a caliper and calculated by the following equation (length×width×height×0.5). In order to confirm the inhibitory effect of the polypeptide 2 against tumor formation, the peptide (at concentrations of 0 μg/mouse, 50 μg/mouse, 100 μg/mouse, and 200 μg/mouse) was injected 5 times through the caudal vein from day 25 at 3 day intervals. On the 41st day, the tumors were separated and the sizes of the tumor volumes were measured, and western blot was performed using each labeled antibody.

Assay [6] deals with MCF7^R cell line. Put plainly: LC3 immunofluorescence staining in MCF7^R cell line. The assay is classed as cell-based. Conditions: 24 hours treatment, confocal microscopy, FIG. 13. The protocol: Additionally, after the treatment with the polypeptide 2 in the MCF7^R cell line, the immunofluorescence staining was performed.
(§2) Specifically, after treating the polypeptide 2 on the MCF7^R cell line for 24 hours, the cells were fixed at room temperature using 4% formaldehyde. Then, the cells were reacted at room temperature for 30 minutes so as to prevent inaccurate binding to antibodies using PBS containing 0.1% BSA, and allowed to react with LC3 antibodies (cell signaling) at 4° C. for 24 hours. After removing the antibodies, the cells were washed with PBS and allowed to react with secondary antibodies (Thermo Fisher) labeled with Alexa 488 fluorescence at room temperature for 1.5 hours. After the reaction, the cells from which antibodies were removed were washed with PBS and stained with DAPI (Thermo Fisher) for 1 minute.

Assay [7] has as its system PC9-ER cell line. Put plainly: western blot of tumor tissue from PC9-ER tumor-bearing nude mice. The assay is classed as in vivo, athymic nude mice (BALB/C nude). Conditions: 50-200 μg/mouse, FIG. 9. The protocol:
as §1

The test system of assay [8] is H1975 cells. The experiment in a line: western blot of autophagy controlling proteins in H1975 cells. It counts as cell-based. Conditions: FIG. 10.
The test system of assay [9] is PC9-ER cell line. Put plainly: western blot of autophagy mechanism proteins in PC9-ER cell line treated with polypeptide. It counts as cell-based. To be noted: FIG. 4. As to the method:
An attempt was made to confirm the inhibitory effects of SPTPKT (polypeptide 1) and QTATAKA (polypeptide 2) against autophagy, based on the results that the expression of ATG5 and ATG5-ATG12 proteins which are known to be involved in autophagy in the cancer cell line (PC9-ER).
Specifically, the PC9-ER cell line was treated with each of the polypeptide 1 and the polypeptide 2 and the expression levels of Beclin1, p-Belclin1, ATG5-ATG12, LC3 I, and LC3 II (i.e., proteins associated with autophagy mechanism) were compared by western blot method, and the results are shown in FIG. 4.

Assay [10] deals with PC9-ER cell line. The experiment in a line: LC3 immunofluorescence staining in PC9-ER cell line. The assay is classed as cell-based. To be noted: 24 hours after treatment, confocal microscopy, FIG. 5. The protocol:
Additionally, the cells were subjected to immunofluorescence staining after treating the PC9-ER cell line with the polypeptide 2.
as §2, with “Specifically, 24 hours” for “Specifically,”, “PC9-ER” for “polypeptide 2 on the MCF7^R”, “with the polypeptide 2,” for “for 24 hours,”

With `CC(=O)O[C@@]12CO[C@@H]1C[C@H](O)[C@@]1(C)C(=O)[C@H](O)C3=C(C)[C@@H](OC(=O)[C@H](O)[C@@H](NC(=O)OC(C)(C)C)c4ccccc4)C[C@@](O)([C@@H](OC(=O)c4ccccc4)[C@H]21)C3(C)C` [docetaxel], the “resistance of PC9-ER cell line to the anticancer agent compared to PC9 cell line” value in [1] is given as “higher resistance”.

With `CC(=O)O[C@H]1C(=O)[C@@]2(C)[C@H]([C@H](OC(=O)c3ccccc3)[C@]3(O)C[C@H](OC(=O)[C@H](O)[C@@H](NC(=O)c4ccccc4)c4ccccc4)C(C)=C1C3(C)C)[C@]1(OC(C)=O)CO[C@@H]1C[C@@H]2O` [taxol], the “resistance of PC9-ER cell line to the anticancer agent compared to PC9 cell line” value in [1] is reported as “higher resistance”.

For GNTITIKT [polypeptide 3], the “inhibitory effect against autophagy in the cancer cell line having resistance to anticancer agents” value (“inhibitory effect” for short) in assay [2] is “inhibitory effect against autophagy”. For the same molecule, the “anticancer activity through the inhibition of autophagy” value in assay [3] is recorded as “anticancer activity”.

As for QTATAKA [polypeptide 2], in assay [4], the “expression level of p62 protein” value was “increased”; the “expression levels of p-Beclin1, ATG5, ATG5-ATG12, LC3 I and LC3 II proteins” value is “reduced”. Further, the “size of tumors (tumor volume)” value in assay [5] is “significantly reduced”. The “expression level of LC3 puncta” value in [6] is “lowered”. The “inhibitory effect” value in assay [2] is “inhibitory effect against autophagy”. For the same molecule, in [7], the “expression of p-AMPK, Beclin1 and p-Beclin1 proteins in tumor tissue” value is reported as “decreased in a concentration-dependent manner”; the “expression of p-mTOR and p62 proteins in tumor tissue” value was “increased in a concentration-dependent manner”. Also, the “expression of p-AMPK, p-Beclin1, ATG5, ATG5-ATG12, LC3 I and LC3 II” value in assay [8] is listed as “lowered”. For the same molecule, in [3] (MTT), the “resistance to osimertinib (Tagrisso), polypeptide at different concentrations” value is given as “reduced in a concentration-dependent manner”. Also, the “anticancer activity through the inhibition of autophagy” value in [3] is given as “anticancer activity”. Further, the “expression levels of Beclin1, p-Beclin1, ATG5-ATG12, LC3 I and LC3 II proteins” value in assay [9] is “lowered”. In assay [10], the “expression level of LC3 puncta” value is reported as “lowered”.

On to SPTPKT [polypeptide 1], for which, in [4], the “expression level of p62 protein” value is reported as “increased”; the “expression levels of p-Beclin1, ATG5, ATG5-ATG12, LC3 I and LC3 II proteins” value is recorded as “reduced”. Further, the “inhibitory effect” value in [2] is reported as “inhibitory effect against autophagy”. The “expression of p-AMPK, p-Beclin1, ATG5, ATG5-ATG12, LC3 I and LC3 II” value in assay [8] is “lowered”. Further, in assay [3], the “anticancer activity through the inhibition of autophagy” value was “anticancer activity”. Also, the “expression levels of Beclin1, p-Beclin1, ATG5-ATG12, LC3 I and LC3 II proteins” value in assay [9] is given as “lowered”.
